Measured values: patent US20240327401A1, “FUSED RING COMPOUND, PHARMACEUTICAL COMPOSITION, AND APPLICATION THEREOF” (EVOPOINT BIOSCIENCES CO., LTD., priority 2021, published 2024)

Tests used:
[1] = molecular target: T1, SOS1/KRAS G12C protein binding (Homo sapiens, UniProt Q07889); assay: Inhibition of SOS1/KRAS G12C protein binding (665 nm/615 nm ratio); details: 15 nM KRAS G12C (aa 1-169), 2.5 nM His-SOS1 (aa 564-1049); nonlinear regression
T1 construct: His-SOS1 (aa 564-1049) protein; purchased Pharmaron Beijing Co., Ltd. 20200717 (His-SOS1); 20200707 (KRAS G12C)
T1 sequence (Q07889 564-1049): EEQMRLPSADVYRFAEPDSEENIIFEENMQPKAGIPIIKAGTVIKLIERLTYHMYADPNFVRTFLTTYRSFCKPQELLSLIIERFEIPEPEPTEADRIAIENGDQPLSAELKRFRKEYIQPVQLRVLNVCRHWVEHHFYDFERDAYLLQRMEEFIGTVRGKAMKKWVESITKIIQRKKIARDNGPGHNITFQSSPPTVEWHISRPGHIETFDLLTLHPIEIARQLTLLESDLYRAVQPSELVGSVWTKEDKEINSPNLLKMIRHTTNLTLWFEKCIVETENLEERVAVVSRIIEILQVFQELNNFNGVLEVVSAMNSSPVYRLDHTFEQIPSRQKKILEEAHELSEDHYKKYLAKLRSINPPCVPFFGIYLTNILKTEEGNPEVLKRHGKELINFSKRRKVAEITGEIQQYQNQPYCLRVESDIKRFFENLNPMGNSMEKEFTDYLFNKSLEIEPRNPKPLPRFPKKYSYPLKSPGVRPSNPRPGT
Procedure: Efficacy Example 2: Evaluation of Inhibition of SOS1/KRAS G12C Protein Binding
A test compound was dissolved in 100% DMSO to give a solution at a concentration of 10 mM. 10 μL of the solution was taken and 3-fold diluted with 100% DMSO to prepare test compound solutions with concentrations of 10000 nM to […], for a total of 11 concentrations. The compound solutions at different concentrations were then transferred to a 384-well plate at 0.1 μL/well using a sonic droplet device Echo (Labcyte), and 2 replicate wells were set for each concentration.
A 15 nM KRAS G12C (aa 1-169) protein (Pharmaron Beijing Co., Ltd., 20200707) was transferred to the 384-well reaction plate at 5 μL/well using the sonic droplet device Echo (Labcyte), and then the reaction plate was centrifuged in a centrifuge (Eppendorf, 5810R) at 1000 rpm/min for 1 min.
A 2.5 nM His-SOS1 (aa 564-1049) protein (Pharmaron Beijing Co., Ltd., 20200717) was transferred to the 384-well reaction plate at 5 μL/well using the sonic droplet device Echo (Labcyte), and then the reaction plate was centrifuged in a centrifuge (Eppendorf, 5810R) at 1000 rpm/min for 1 min and incubated at 25° C. for 15 min.
A mixed solution of Antibody 1 (MAb Anti-6his-Tb cryptate Gold, Cisbio, 61HI2TLA) and Antibody 2 (MAb Anti-GST-XL665, Cisbio, 61GSTXLA) was transferred to the 384-well reaction plate at 10 μL/well using the sonic droplet device Echo (Labcyte), and then the reaction plate was centrifuged in a centrifuge (Eppendorf, 5810R) at 1000 rpm/min for 1 min and incubated at 25° C. for 120 min.
The 665 nm/615 nm optical density ratio was read using an Envision multifunctional microplate reader (Perkin Elmer, Envision 2104).
Analysis of Original Data:
The IC50 values of the compounds were fitted by a nonlinear regression equation of Graphpad Prism 8. The results are shown in Table 2: • Negative control: DMSO
The IC50 (half maximal inhibitory concentration) values of the compounds were calculated using the following non-linear fitting equation:
[formula] • X: Log of cpd concentration • Y: 665 nm/615 nm ratio

[2] = test system: ERK phosphorylation in DLD-1 cells; assay: In-cell Western blot assay for ERK phosphorylation in DLD-1 cells; format: cell-based; details: Homo sapiens, p-ERK signal corrected using DMSO and BI-3406, four-parameter fit
Procedure: Efficacy Example 1: In-cell Western Blot Assay for ERK Phosphorylation in DLD-1 Cells
DLD-1 cells (ATCC, CCL-221) were thawed and cultured in a culture medium containing RPMI1640 (Gibco, A10491-01), 10% fetal bovine serum (FBS) (Transgene, FS201-02) and 1% antibiotic P/S (Gibco, 15140-122) for 3 days until the cell viability was good. The cells were inoculated into a 384-well plate and incubated at 37° C. with 5% CO2 overnight. A test compound, a positive control compound, and a negative control were added. The compound was at concentrations of 10000 nM to 1.52 nM (3-fold dilution) and […], for a total of 10 concentrations. The mixture was well mixed and incubated at 37° C. with 5% CO2. The cells were washed twice with PBS (Solarbio, P1010), and then a blocking buffer was added. After 1 h of blocking at room temperature, a primary antibody mixture (phospho-p44/42 MAPK (T202/Y204) Rabbit mAb (CST, […]), GAPDH (D4C6R) Mouse mAb) (CST, 97166S) was added, followed by overnight incubation at 4° C. The cells were washed 3 times with PBST (PBS containing 0.05% Tween-20 (Solarbio, T8220)), and a secondary antibody mixture (goat anti rabbit 800CW (LI-COR, 926-32211), goat anti mouse 680RD (LI-COR, 926-68070)) was added, followed by incubation at room temperature in the dark. The 384-well plate was reversed and centrifuged at 1000 rpm for 1 min, and read on an Odyssey CLx fluorescence imaging system (LI-COR) to obtain fluorescence signal values, which were corrected using DMSO and BI-3406.
[formula] • H=Ave (DMSO) • L=Ave (BI-3406) • SD (H)=STDEV (DMSO) • SD (L)=STDEV (BI-3406)
The IC50 values of the compounds were calculated using a four-parameter fitting algorithm, specifically as follows:
[formula] • X: Log of cpd concentration • Y: Ave (relative pERK) • Top and Bottom: Plateaus in same units as Y • log IC50: same log units as X • HillSlope: Slope factor or Hill slope.

Row | Structure (SMILES) | IC50 [1] | IC50 [2]
1 | COCC1(n2cc3c(N[C@H](C)c4cccc(C(F)F)c4F)nc(C)nc3c(OC)c2=O)CC1 [SZ-022346] | 0.03 µM | 1.02 µM
2 | COc1c(=O)n(C2(C(F)F)CC2)cc2c(N[C@H](C)c3cccc4c3OCC4(F)F)nc(C)nc12 [SZ-022330] | 0.00502 µM | 0.117 µM
3 | COc1c(=O)n(C2CC(F)(F)C2)cc2c(N[C@H](C)c3cccc(C(F)F)c3F)nc(C)nc12 [SZ-022336] | 0.0365 µM | 
4 | CCOc1c(=O)n(C2(C(F)F)CC2)cc2c(N[C@H](C)c3cccc(C(C)(F)F)c3F)nc(C)nc12 [SZ-022338] | 0.0121 µM | 0.334 µM
5 | COc1c(=O)n(C2(C(F)F)CC2)cc2c(N[C@H](C)c3cccc(C(F)(F)C(C)(C)O)c3F)nc(C)nc12 [SZ-022317] | 0.00454 µM | 0.371 µM
6 | CCOc1c(=O)n(C2(C(F)F)CC2)cc2c(N[C@H](C)c3cccc(C(F)(F)F)c3C)nc(C)nc12 [SZ-022339] | 0.00725 µM | 0.186 µM
7 | Cc1nc(N[C@H](C)c2cccc(C(F)F)c2F)c2cn(C3(C(F)F)CC3)c(=O)c(OC(C)C)c2n1 [SZ-022313] | 0.044 µM | 1.27 µM
8 | [2H]C([2H])([2H])Oc1c(=O)n(C2(C(F)(F)F)CC2)cc2c(N[C@H](C)c3cccc(C(F)F)c3F)nc(C)nc12 [SZ-022354] | 0.0218 µM | 0.138 µM
9 | CCOc1c(=O)n(C2(C(F)F)CC2)cc2c(N[C@H](C)c3cccc(C(F)F)c3F)nc(C)nc12 [SZ-022296] | 0.00943 µM | 0.143 µM
10 | CCOc1c(=O)n(C2(CF)CC2)cc2c(N[C@H](C)c3cccc(C(C)(F)F)c3F)nc(C)nc12 [SZ-022361] | 0.00462 µM | 0.164 µM
11 | CCOc1c(=O)n(C2(CF)CC2)cc2c(N[C@H](C)c3cccc(C(F)(F)F)c3C)nc(C)nc12 [SZ-022342] | 0.00715 µM | 0.057 µM
12 | COc1c(=O)n(C2(C(F)F)CC2)cc2c(N[C@H](C)c3cc(N)cc(C(F)(F)F)c3)nc(C)nc12 [SZ-022327] | 0.00505 µM | 0.153 µM
13 | COc1c(=O)n(C2(CF)CC2)cc2c(N[C@H](C)c3cccc(C(C)(F)F)c3F)nc(C)nc12 [SZ-022357] | 0.00368 µM | 0.165 µM
14 | CCOc1c(=O)n(C2(C)CC2)cc2c(N[C@H](C)c3cccc(C(F)F)c3F)nc(C)nc12 [SZ-022364] | 0.0222 µM | 0.303 µM
15 | [2H]C([2H])([2H])Oc1c(=O)n(C2(C(F)(F)F)CC2)cc2c(N[C@H](C)c3cccc(C#N)c3C)nc(C)nc12 [SZ-022384] | 0.0154 µM | 0.884 µM
16 | COc1c(=O)n(C2(C(F)F)CC2)cc2c(N[C@H](C)c3cccc(C(F)(F)F)c3)nc(C)nc12 [SZ-022348] | 0.0218 µM | 0.614 µM
17 | [2H]C([2H])([2H])Oc1c(=O)n(C2(C(F)F)CC2)cc2c(N[C@H](C)c3cccc(C(F)F)c3F)nc(C)nc12 [SZ-022295] | 0.00815 µM | 0.256 µM
18 | COc1c(=O)n(C2(C(F)F)CC2)cc2c(N[C@H](C)c3cccc(C(C)(F)F)c3)nc(C)nc12 [SZ-022350] | 0.0167 µM | 0.211 µM
19 | Cc1nc(N[C@H](C)c2cccc(C(F)F)c2F)c2cn(C3(C(F)F)CC3)c(=O)c(OCCO)c2n1 [SZ-022352] | 0.016 µM | 0.516 µM

Row | Structure (SMILES) | IC50 [1] | IC50 [2]
20 | COc1c(=O)n(C2(CF)CC2)cc2c(N[C@H](C)c3cccc(C(F)F)c3F)nc(C)nc12 [SZ-022301] | 0.0065 µM | 0.262 µM
21 | Cc1nc(N[C@H](C)c2cccc(C(F)(F)F)c2C)c2cn(C3(C)CC3)c(=O)c(S(C)(=O)=O)c2n1 [SZ-022371] | 0.0218 µM | 0.274 µM
22 | COc1c(=O)n(C2(C)CCOC2)cc2c(N[C@H](C)c3cccc(C(F)F)c3F)nc(C)nc12 (some centres unmarked) [SZ-022328] | 0.0097 µM | 0.309 µM
23 | CCOc1c(=O)n(C2(C)CC2)cc2c(N[C@H](C)c3cccc(C(C)(F)F)c3F)nc(C)nc12 [SZ-022359] | 0.00857 µM | 0.231 µM
24 | COc1c(=O)n(C2(CO)CC2)cc2c(N[C@H](C)c3cccc(C(F)F)c3F)nc(C)nc12 [SZ-022347] | 0.0601 µM | 
25 | COc1c(=O)n(C2(C(F)F)CC2)cc2c(N[C@H](C)c3ccc(-c4ccccc4CN(C)C)s3)nc(C)nc12 [SZ-022373] | 0.0014 µM | 0.042 µM
26 | Cc1nc(N[C@H](C)c2cccc(C(F)F)c2F)c2cn(C3(C(F)F)CC3)c(=O)c(O[C@H]3CCOC3)c2n1 [SZ-022351] | 0.0214 µM | 0.555 µM
27 | [2H]C([2H])([2H])Oc1c(=O)n(C2(C(F)F)CC2)cc2c(N[C@H](C)c3cccc(C#N)c3C)nc(C)nc12 [SZ-022382] | 0.00886 µM | 0.729 µM
28 | COc1c(=O)n(C2(C(F)F)CC2)cc2c(N[C@H](C)c3cccc(C(F)(F)F)c3C)nc(C)nc12 [SZ-022304] | 0.00698 µM | 0.079 µM
29 | CCS(=O)(=O)c1c(=O)n(C2(C(F)F)CC2)cc2c(N[C@H](C)c3cccc(C(F)F)c3F)nc(C)nc12 [SZ-022372] | 0.0367 µM | 
30 | CCC1(n2cc3c(N[C@H](C)c4cccc(C(F)F)c4F)nc(C)nc3c(OC)c2=O)CC1 [SZ-022343] | 0.0267 µM | 
31 | COc1c(=O)n(C2(C(F)F)CC2)cc2c(N[C@H](C)c3cccc4c(F)coc34)nc(C)nc12 [SZ-022330B] | 0.00999 µM | 0.4 µM
32 | CCOc1c(=O)n(C2(CF)CC2)cc2c(N[C@H](C)c3cccc(C(F)F)c3F)nc(C)nc12 [SZ-022363] | 0.00736 µM | 0.171 µM
33 | COc1c(=O)n(C2(C(F)F)CC2)cc2c(N[C@H](C)c3cccc(C(F)(F)CO)c3F)nc(C)nc12 [SZ-022329] | 0.00263 µM | 0.417 µM
34 | COc1c(=O)n(C2CCN(C(=O)C3CC3)CC2)cc2c(N[C@H](C)c3cccc(C(F)F)c3F)nc(C)nc12 [SZ-022335] | 0.0279 µM | 
35 | COc1c(=O)n(C23CC(C2)C3)cc2c(N[C@H](C)c3cccc(C(F)F)c3F)nc(C)nc12 [SZ-022345] | 0.0218 µM | 0.885 µM
36 | COc1c(=O)n(C2CCOCC2)cc2c(N[C@H](C)c3cccc(C(F)F)c3F)nc(C)nc12 [SZ-022326] | 0.0105 µM | 
37 | COc1c(=O)n(C2(C#N)CC2)cc2c(N[C@H](C)c3cccc(C(F)F)c3F)nc(C)nc12 [SZ-022344] | 0.0237 µM | 
38 | Cc1nc(N[C@H](C)c2cccc(C(F)F)c2F)c2cn(C3(C(F)F)CC3)c(=O)c(N(C)C)c2n1 [SZ-022251] |  | 0.146 µM
